Where “and” joins values, the source holds several entries; their conditions need not be identical. Identical values can stand only once.
Molecular target: T1, P-gp (Mus musculus, UniProt P21447)
T1 construct: FVB wild-type littermates, which expresses P-gp at their blood-brain barrier (BBB); from tissue; host or cells: blood-brain barrier / brain of FVB wild-type mice, compared with mdr1 a/b (-/-) mice, in vivo
Test: In vivo P-gp liability assessment in mdr1 a/b (-/-) and wild type FVB mouse
Conditions: mdr1 a/b (-/-) vs FVB wild-type mice, 2.5 mg/Kg IV, 5 min post administration, ratio of Cb/Cp
Procedure: Use of mdr1 (−/−) mouse and its FVB wild-type littermates, which expresses P-gp at their blood-brain barrier (BBB), can distinguish between a test compound of high P-gp liability from one with a more desirable low P-gp liability.
Test compounds are administered to both the mdr1 a/b (−/−) and the FVB wild-type mice (N=4/strain) intravenously at 2.5 mg/Kg through the tail vein. Plasma and brains are harvested at 5 min post administration. Test compound is extracted from tissue in parallel with calibration curves prepared from age-matched control tissues, then quantitated by LC/MS/MS. The ratio of brain concentration (Cb) to plasma concentration (Cp) is used as a measure of brain penetration according to the following formula: Brain Penetration (P)=Cb/Cp Therefore, a measure of brain penetration in the mdr1 (−/−) mouse relative to that of the wild-type animal represents an assessment of in vivo P-gp efflux, which is analogous to that determine in vitro with MDR1-MDCK cells. Calculations are made according to the following formula: Pmdr1/PFVB=In vivo Efflux

T1 sequence (P21447 whole entry): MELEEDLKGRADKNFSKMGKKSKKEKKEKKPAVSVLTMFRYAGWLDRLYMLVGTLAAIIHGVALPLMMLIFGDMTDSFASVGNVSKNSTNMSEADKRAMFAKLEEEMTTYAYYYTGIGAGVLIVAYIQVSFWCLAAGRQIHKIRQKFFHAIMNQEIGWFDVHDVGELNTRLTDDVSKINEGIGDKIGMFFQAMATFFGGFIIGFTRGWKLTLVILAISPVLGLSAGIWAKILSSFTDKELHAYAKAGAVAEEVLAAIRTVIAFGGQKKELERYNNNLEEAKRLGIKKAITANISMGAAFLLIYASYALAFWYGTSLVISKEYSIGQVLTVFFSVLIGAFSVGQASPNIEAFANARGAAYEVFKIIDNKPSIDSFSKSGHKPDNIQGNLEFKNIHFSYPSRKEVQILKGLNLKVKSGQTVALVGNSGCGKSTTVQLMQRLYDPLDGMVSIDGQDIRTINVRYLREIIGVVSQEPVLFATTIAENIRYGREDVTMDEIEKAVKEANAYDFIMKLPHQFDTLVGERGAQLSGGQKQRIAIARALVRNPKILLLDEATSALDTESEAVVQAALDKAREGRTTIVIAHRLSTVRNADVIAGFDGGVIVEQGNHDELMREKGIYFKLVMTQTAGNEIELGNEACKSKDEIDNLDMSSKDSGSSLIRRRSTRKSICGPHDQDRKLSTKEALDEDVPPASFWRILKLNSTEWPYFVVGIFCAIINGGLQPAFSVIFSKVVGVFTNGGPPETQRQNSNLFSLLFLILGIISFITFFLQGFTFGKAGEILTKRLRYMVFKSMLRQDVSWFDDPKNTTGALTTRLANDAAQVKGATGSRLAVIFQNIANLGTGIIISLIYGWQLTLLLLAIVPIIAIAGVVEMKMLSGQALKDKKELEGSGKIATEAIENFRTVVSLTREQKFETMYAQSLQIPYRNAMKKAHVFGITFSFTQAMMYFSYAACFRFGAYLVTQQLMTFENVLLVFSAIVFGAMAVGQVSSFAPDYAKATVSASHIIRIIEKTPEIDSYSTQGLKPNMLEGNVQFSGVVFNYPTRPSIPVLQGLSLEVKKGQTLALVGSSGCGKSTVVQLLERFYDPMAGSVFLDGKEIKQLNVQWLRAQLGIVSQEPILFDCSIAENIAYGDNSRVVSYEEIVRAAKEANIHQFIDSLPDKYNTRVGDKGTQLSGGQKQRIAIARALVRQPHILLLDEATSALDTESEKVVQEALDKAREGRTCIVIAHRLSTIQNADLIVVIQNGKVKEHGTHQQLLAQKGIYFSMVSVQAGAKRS

Row | in vivo P-gp efflux (Pmdr1/PFVB) | Structure (SMILES)
1 | 1.17 | CNCC[C@@H](Oc1ccccc1C)c1ccccc1 [atomoxetine]

Test system: not listed separately
Test: Brain to plasma ratio (AUC 0-6 h) in female FVB mice
Format: in vivo
Conditions: 100 mpk dose

Row | Brain AUC (0-6 h) | Structure (SMILES)
2 | 28 µM·h | CC(=O)NC(Cc1cc(F)cc(F)c1)C(O)CNC1(CCCC(C)(C)C)CC1 (stereo not drawn) [Example 3.5, N-(1-(3,5-difluorophenyl)-4-(1-(4,4-dimethylpentyl)cyclopropylamino)-3-hydroxybutan-2-yl)acetamide]

Same assay, conditions: mouse, brain and plasma, 100 mg/kg, 100 mpk dose, AUC (0-6 h)

Row | Kp | Structure (SMILES)
3 | 2.1 | CC(=O)NC(Cc1cc(F)cc(F)c1)C(O)CNC1(CCCC(C)(C)C)CC1 (stereo not drawn) [Example 3.5, N-(1-(3,5-difluorophenyl)-4-(1-(4,4-dimethylpentyl)cyclopropylamino)-3-hydroxybutan-2-yl)acetamide]

Same assay, conditions: mouse, plasma, 100 mg/kg, 100 mpk dose

Row | AUC(0-t) | Structure (SMILES)
4 | 13 µM·h | CC(=O)NC(Cc1cc(F)cc(F)c1)C(O)CNC1(CCCC(C)(C)C)CC1 (stereo not drawn) [Example 3.5, N-(1-(3,5-difluorophenyl)-4-(1-(4,4-dimethylpentyl)cyclopropylamino)-3-hydroxybutan-2-yl)acetamide]

Test system: Madin-Darby Canine Kidney (MDCK) cells
Test: In vitro permeability across a monolayer of MDCK cells in a transwell device
Format: in vitro ADME
Conditions: test compound 5 μM, 2 h at 37° C., apical to basolateral
Procedure: (§1) Compounds were evaluated for permeability across a monolayer of Madin-Darby Canine Kidney (MDCK) cells in a transwell device following culturing for 4 days. Cells were grown in Dulbecco's Modified Eagle Media with Glutamax (Invitrogen Cat #10569-010) with 10% Heat Inactivated Fetal Bovine Serum (media kitchen) and Penicillin/streptomycin 40 units/mL (media kitchen) at 37° C. and 5% CO2, and were plated into 12 mm diameter transwell plates (12 wells/plate, Costar Cat#3401). A 0.5 mL of cell suspension (400,000 cells/mL) was placed on membrane and a 1.5 mL media in the bottom wells on day 1. On day 2 and day 3, cells were fed with new media. On day 4, the lower chambers were filled with modified Hank's Balanced Salt Solution (mHBSS, media kitchen) with or without 5 μM Cyclosporin A (CspA, Sigma Cat#C-3662). Media was removed from upper chambers and filled with mHBSS with or without CspA, and incubated 30 min at 37° C. with light shaking. Donor chambers were emptied, and filled with test compound at 5 μM in mHBSS. Lucifer Yellow (100 μM, LY, Sigma Cat#L-0144) was added to all of the upper chambers to test for monolayer integrity (tight junctions). Plates were incubated for 2 h at 37° C. with shaking. After 2 h, both the donor and receiver wells were sampled. The bottom chambers were read in a fluorometer to assess LY leakage, and then the media from all wells were assayed by LC/MS/MS to determine compound levels.

Row | Permeability Forward A > B | Structure (SMILES)
5 | 11.84 ×10⁻⁶ cm/s | CC(=O)NC(Cc1cc(F)cc(F)c1)C(O)CNC1(CCOCC(C)(C)C)CC1C (single isomer, unassigned) [Example 3.8, N-(4-(2-methyl-1-(2-(neopentyloxy)ethyl)cyclopropylamino)-1-(3,5-difluorophenyl)-3-hydroxybutan-2-yl)acetamide]
6 | 4.56 ×10⁻⁶ cm/s | CC(=O)NC(Cc1cc(F)cc(F)c1)C(O)CNC1(C(=O)NCCC(C)(C)C)CC1 (stereo not drawn) [Example 3.4, 1-(3-acetamido-4-(3,5-difluorophenyl)-2-hydroxybutylamino)-N-(3,3-dimethylbutyl)cyclopropanecarboxamide]

Test system: not listed separately
Test: as above
Format: in vitro ADME, Canine
Conditions: dog, MDCK, test compound 5 μM, 2 h at 37° C., apical to basolateral, read-out: Permeability Forward A > B
Procedure: as §1

Row | Structure (SMILES) | Papp A→B at 2 h, 5 μM
7 | CC(=O)NC(Cc1cc(F)cc(F)c1)C(O)CNC1(CCOCC(C)(C)C)CC1C (single isomer, unassigned) [Example 3.7, N-(4-(2-methyl-1-(2-(neopentyloxy)ethyl)cyclopropylamino)-1-(3,5-difluorophenyl)-3-hydroxybutan-2-yl)acetamide] | 8.18 ×10⁻⁶ cm/s
8 | CC(=O)NC(Cc1cc(F)cc(F)c1)C(O)CNC1(CCCC(C)C)CC1 (stereo not drawn) [Example 3.2, N-(1-(3,5-difluorophenyl)-3-hydroxy-4-(1-(4-methylpentyl)cyclopropylamino)butan-2-yl)acetamide] | 4.33 ×10⁻⁶ cm/s
9 | CC(=O)NC(Cc1cc(F)cc(F)c1)C(O)CNC1(CSCC(C)(C)C)CC1 (stereo not drawn) [Example 3.3, N-(4-(1-((neopentylthio)methyl)cyclopropylamino)-1-(3,5-difluorophenyl)-3-hydroxybutan-2-yl)acetamide] | 10.1 ×10⁻⁶ cm/s
10 | CC(=O)NC(Cc1cc(F)cc(F)c1)C(O)CNC1(C(=O)NCCC(C)(C)C)CC1 (stereo not drawn) [Example 3.4, 1-(3-acetamido-4-(3,5-difluorophenyl)-2-hydroxybutylamino)-N-(3,3-dimethylbutyl)cyclopropanecarboxamide] | 3.33 ×10⁻⁶ cm/s
11 | CC(=O)NC(Cc1cc(F)cc(F)c1)C(O)CNC1(Cc2cn(CC(C)(C)C)nn2)CC1 (stereo not drawn) [Example 3.6, N-(1-(3,5-difluorophenyl)-3-hydroxy-4-(1-((1-neopentyl-1H-1,2,3-triazol-4-yl)methyl)cyclopropylamino)butan-2-yl)acetamide] | 4.31 ×10⁻⁶ cm/s
12 | CC(=O)NC(Cc1cc(F)cc(F)c1)C(O)CNC1(COCCC(C)(C)C)C2CCCC21 (stereo not drawn) [Example 3.9, N-(1-(3,5-difluorophenyl)-4-(6-((3,3-dimethylbutoxy)methyl)bicyclo[3.1.0]hexan-6-ylamino)-3-hydroxybutan-2-yl)acetamide] | 4.73 ×10⁻⁶ cm/s
13 | CC(=O)NC(Cc1cc(F)cc(F)c1)C(O)CNC1(Cc2cc(C(C)(C)C)on2)CC1 (stereo not drawn) [Example 3.10, N-(4-(1-((5-tert-butylisoxazol-3-yl)methyl)cyclopropylamino)-1-(3,5-difluorophenyl)-3-hydroxybutan-2-yl)acetamide] | 9.32 ×10⁻⁶ cm/s
14 | CC(=O)NC(Cc1cc(F)cc(F)c1)C(O)CNC1(CCCCC(C)(C)C)CC1 (stereo not drawn) [Example 3.11, N-(1-(3,5-difluorophenyl)-4-(1-(5,5-dimethylhexyl)cyclopropylamino)-3-hydroxybutan-2-yl)acetamide] | 3.31 ×10⁻⁶ cm/s

Now from value to compound:

Row | Papp A→B at 2 h, 5 μM | Structure (SMILES)
15 | 4.28 ×10⁻⁶ cm/s | CC(=O)NC(Cc1cc(F)cc(F)c1)C(O)CNC1(C/C=C/CC(C)(C)C)CC1 (stereo not drawn) [Example 3.12, N-(1-(3,5-difluorophenyl)-4-(1-(5,5-dimethylhex-2-enyl)cyclopropylamino)-3-hydroxybutan-2-yl)acetamide]
16 | 4.39 ×10⁻⁶ cm/s | CC(=O)NC(Cc1cc(F)cc(F)c1)C(O)CNC1(CCCn2cccn2)CC1 (stereo not drawn) [Example 3.13, N-(4-(1-(3-(1H-pyrazol-1-yl)propyl)cyclopropylamino)-1-(3,5-difluorophenyl)-3-hydroxybutan-2-yl)acetamide]
17 | 3.47 ×10⁻⁶ cm/s | CC(=O)NC(Cc1cc(F)cc(F)c1)C(O)CNC1(CCCCn2cccn2)CC1 (stereo not drawn) [Example 3.14, N-(4-(1-(4-(1H-pyrazol-1-yl)butyl)cyclopropylamino)-1-(3,5-difluorophenyl)-3-hydroxybutan-2-yl)acetamide]
18 | 9.74 ×10⁻⁶ cm/s | CC(=O)NC(Cc1cc(F)cc(F)c1)C(O)CNC1(CCOCC(C)(C)C)CC1 (stereo not drawn) [Example 3.15, N-(4-(1-(2-(neopentyloxy)ethyl)cyclopropylamino)-1-(3,5-difluorophenyl)-3-hydroxybutan-2-yl)acetamide]
19 | 6.15 ×10⁻⁶ cm/s | CC(=O)NC(Cc1cc(F)cc(F)c1)C(O)CNC1(C(=O)NCC(C)(C)C)CC1 (stereo not drawn) [Example 3.16, 1-(3-acetamido-4-(3,5-difluorophenyl)-2-hydroxybutylamino)-N-neopentylcyclopropanecarboxamide]
20 | 4.56 ×10⁻⁶ cm/s | CC(=O)NC(Cc1cc(F)cc(F)c1)C(O)CNC1(C(=O)N(C)c2ccccc2)CC1 (stereo not drawn) [Example 3.18, 1-(3-acetamido-4-(3,5-difluorophenyl)-2-hydroxybutylamino)-N-methyl-N-phenylcyclopropanecarboxamide]
21 | 19.1 ×10⁻⁶ cm/s | CC(=O)NC(Cc1cc(F)cc(F)c1)C(O)CNC1(Cc2c(F)cccc2F)CC1 (stereo not drawn) [Example 3.19, N-(4-(1-(2,6-difluorobenzyl)cyclopropylamino)-1-(3,5-difluorophenyl)-3-hydroxybutan-2-yl)acetamide]
22 | 21.2 ×10⁻⁶ cm/s | CC(=O)NC(Cc1cc(F)cc(F)c1)C(O)CNC1(Cc2ccccc2F)CC1 (stereo not drawn) [Example 3.20, N-(1-(3,5-difluorophenyl)-4-(1-(2-fluorobenzyl)cyclopropylamino)-3-hydroxybutan-2-yl)acetamide]

Test system: beta-secretase versus catD
Test: Selectivity of compounds for inhibiting BACE over catD (ratio of IC50 values)
Format: biochemical
Conditions: each value is an average of four experimental runs; multiple values = more than one experiment
Procedure: Investigation of potential beta-secretase inhibitors produced compounds with increased selectivity for beta-secretase over other aspartyl proteases such as cathepsin D (catD), cathepsin E (catE), Human Immunodeficiency Viral (HIV) protease, and renin. Selectivity was calculated as a ratio of inhibition (IC50) values in which the inhibition of beta-secretase was compared to the inhibition of other aspartyl proteases.
The compounds of formula (I) can be selective for beta-secretase versus catD.
In the following examples, each value is an average of four experimental runs and multiple values for one compound indicate that more than one experiment was conducted.

Row | Selectivity IC50 catD/IC50 BACE | Structure (SMILES)
23 | > 3.7 and > 3.2 | CC(=O)NC(Cc1cc(F)cc(F)c1)C(O)CNC1(CCC(C)C)C2CCCC21 (stereo not drawn) [Example 3.1, N-(4-(6-isopentylbicyclo[3.1.0]hexan-6-ylamino)-1-(3,5-difluorophenyl)-3-hydroxybutan-2-yl)acetamide]
24 | 1.1 | CC(=O)NC(Cc1cc(F)cc(F)c1)C(O)CNC1(CCCC(C)C)CC1 (stereo not drawn) [Example 3.2, N-(1-(3,5-difluorophenyl)-3-hydroxy-4-(1-(4-methylpentyl)cyclopropylamino)butan-2-yl)acetamide]

Source: patent US7906556B2, “Methods of treating amyloidosis using cyclopropyl derivative aspartyl protease inhibitors” (Elan Pharmaceuticals, Inc., priority 2005, dated 2011)
